Data taken from patent publication US12076421B2, “Assessment of coronary heart disease with carbon dioxide” (priority 2011, dated 2024).

Columns and labels:
myocardium [1] = test: Myocardial BOLD MRI response to PaCO2 modulation while PaO2 is held constant; assay type: in vivo, canines
Description: In Examples 1-6, all imaging studies were performed in instrumented animals with a Doppler flow probe attached to the LAD coronary arteries for measurement of flow changes in response to CO2 and clinical dose of adenosine. In these studies, CO2 and O2 delivery were tightly controlled using […]. […] At each CO2 level, free-breathing and cardiac gated blood-oxygen-level-dependent (BOLD) acquisitions were prescribed at mid diastole and Doppler flow velocities were measured. Similar acquisitions were also performed with block sequences of CO2 levels; that is, CO2 levels were alternated between 40 and 50 mmHg and BOLD images (and corresponding Doppler flow velocities) were acquired at each CO2 level to assess the reproducibility of the signal changes associated with different CO2 levels. Each delivery of CO2 using […] was made in conjunction with arterial blood draw to determine the arterial blood CO2 levels. […] We assessed the difference between myocardial blood-oxygen-level dependent (BOLD) response under hypercarbia and normocarbia conditions in canines. The BOLD signal intensity is proportional to oxygen saturation. […] The lower panel depicts the difference as obtained by subtracting the signal under rest from that under stress. […] We further assessed the myocardial BOLD response to stepwise CO2 increase (ramp-up) in canines. […] To further evaluate vascular reactivity and coronary response to CO2, we measured the myocardial BOLD signal in response to block increases of CO2 in canines. Specifically, the myocardial BOLD signal was measured as the amount of CO2 administered to the canine subjects alternated between 40 mmHg CO2 and 50 mmHg CO2. […] The myocardium is supplied with blood by the left anterior descending (LAD) artery, the right coronary artery (RCA) and the left circumflex (LCX) artery. We measured the blood flow through each of these arteries in response to increasing CO2 supply. As shown in FIG. 6 and summarized in FIG. 7, in each of the three LAD, RCA and LCX arteries, there is a direct correlation between the amount of CO2 administered and the signal intensity; as the amount of administered CO2 increases, the signal intensity, signaling the blood flow, in each of the three arteries increases. Further, as shown in FIG. 6 and summarized in FIG. 8, there was no response to CO2 modulation in control territories such as blood, skeletal muscle or air. […] Vascular reactivity of three canines that were administered with adenosine was compared with the vascular reactivity of canines that were administered with CO2. As shown in FIGS. 10A and 10B, the hyperemic adenosine stress BOLD response was approximately 12% compared with 16% in response to CO2.

[2] = test system: left anterior descending (LAD) artery; test: Doppler flow in the left anterior descending artery in response to PaCO2 modulation; assay type: in vivo, canines; conditions: increasing amount of administered CO2, PaO2 held constant
Description: (§1) In Examples 1-6, all imaging studies were performed in instrumented animals with a Doppler flow probe attached to the LAD coronary arteries for measurement of flow changes in response to CO2 and clinical dose of adenosine. In these studies, CO2 and O2 delivery were tightly controlled using Respiract. CO2 values were incremented in steps of 10 mmHg starting from 30 mmHg to 60 mmHg and were ramped down in decrements of 10 mmHg. At each CO2 level, free-breathing and cardiac gated blood-oxygen-level-dependent (BOLD) acquisitions were prescribed at mid diastole and Doppler flow velocities were measured. Similar acquisitions were also performed with block sequences of CO2 levels; that is, CO2 levels were alternated between 40 and 50 mmHg and BOLD images (and corresponding Doppler flow velocities) were acquired at each CO2 level to assess the reproducibility of the signal changes associated with different CO2 levels. Each delivery of CO2 using Respiract was made in conjunction with arterial blood draw to determine the arterial blood CO2 levels.
The Doppler flow was measured in the left anterior descending (LAD) artery. […] The relative change in coronary flow velocity was directly proportional to the amount of CO2 administered.

myocardium [3] = test: Myocardial BOLD response to PaCO2 in human volunteers; assay type: in vivo, humans; conditions: early human data, pCO2 change of 10 mmHg, from 35 mmHg to 45 mmHg
[4] = test system: myocardial blood flow (MBF); test: 13N-ammonia PET myocardial blood flow, canines without coronary stenosis; assay type: in vivo; conditions: for mean MBF: absence of stenosis, hypercapnia ~25 mmHg increase in PaCO2, standard dose adenosine; for Global MBF normalized by rate-pressure-product: intact canines, in ml/min/g per mmHg·bpm
Description: We investigated whether a physiologically tolerable hypercapnia stimulus ( 25-mmHg increase in PaCO2) can increase myocardial blood flow (MBF) to that observed with adenosine in three groups of canines: (i) without coronary stenosis; (ii) subjected to non-flow limiting coronary stenosis; and (iii) following pre-administration of caffeine. These studies were conducted by prospectively and independently controlling PaCO2 and combining it with ^[…]-ammonia Positron Emission Tomography (PET) measurements, and the extent of effect on MBF due to hypercapnia was compared to adenosine. The objectives of these studies were twofold: to investigate the effects of PaCO2 on MBF while minimizing contributions from factors that can unintentionally reduce or inaccurately report on sensitivity of PaCO2 on MBF; and to assess whether an independent, precise and rapid establishment of physiologically tolerable level of hypercapnia provides equivalent hyperemia as adenosine, a commonly used pharmacological stimulus for cardiac stress testing with and without pre-administration of caffeine. To address these aims, a clinically relevant animal model was used along with validated strategies for (i) precisely and rapidly establishing desired levels of PaCO2, while holding PaO2 constant; (ii) quantifying MBF in vivo; and (iii) image analysis to derive MBF values across the different coronary supply territories. We compared our findings to the effects of standard dose of adenosine in the same animal models with and without coronary stenosis to quantify MBF and flow deficit regions under peak tolerable PaCO2. To determine whether MBF response to PaCO2 overlaps the same mechanistic path as adenosine, we quantified MBF under hypercapnia and adenosine following caffeine administration. Studies were conducted as described in Yang, H-J et al., J. Nucl. Med. 58: 953-960 (2017), which is hereby incorporated by reference in its entirety. […] FIG. 13 is a table summarizing the mean arterial CO2, O2 and hemodynamic variables of interest in Group Intact. FIG. 14A-14D show the mean global MBF and MPR response to hypercapnia in relation to adenosine. Global MBF under adenosine and hypercapnia were both higher than at rest (p<0.05, for both) and were not different from one another (p=0.33). […] Similar observations were evident for regional MBF and MPR with hypercapnia and adenosine. The observed range of MBF at rest (0.44 to 1.93 ml/min/g) and adenosine (0.47 to 5.10 ml/min/g) and range of MPR under adenosine (1.20 to 4.57) across the animals is consistent with previous reports (Kuhle, W. G. et al., Circulation 86:1004-1017 (1992)).

[5] = test system: myocardial blood flow (MBF); test: 13N-ammonia PET myocardial blood flow and perfusion defect, canines with LAD coronary stenosis; assay type: in vivo; conditions: for regional MBF versus rest: all territories (LAD, LCx, RCA); for regional MBF versus rest / MBF increase in the LAD territory: p<0.05; for MBF increase in the LAD territory: compared with LCx and RCA territories
Description: We investigated whether a physiologically tolerable hypercapnia stimulus ( 25-mmHg increase in PaCO2) can increase myocardial blood flow (MBF) to that observed with adenosine in three groups of canines: (i) without coronary stenosis; (ii) subjected to non-flow limiting coronary stenosis; and (iii) following pre-administration of caffeine. These studies were conducted by prospectively and independently controlling PaCO2 and combining it with ^[…]-ammonia Positron Emission Tomography (PET) measurements, and the extent of effect on MBF due to hypercapnia was compared to adenosine. The objectives of these studies were twofold: to investigate the effects of PaCO2 on MBF while minimizing contributions from factors that can unintentionally reduce or inaccurately report on sensitivity of PaCO2 on MBF; and to assess whether an independent, precise and rapid establishment of physiologically tolerable level of hypercapnia provides equivalent hyperemia as adenosine, a commonly used pharmacological stimulus for cardiac stress testing with and without pre-administration of caffeine. To address these aims, a clinically relevant animal model was used along with validated strategies for (i) precisely and rapidly establishing desired levels of PaCO2, while holding PaO2 constant; (ii) quantifying MBF in vivo; and (iii) image analysis to derive MBF values across the different coronary supply territories. We compared our findings to the effects of standard dose of adenosine in the same animal models with and without coronary stenosis to quantify MBF and flow deficit regions under peak tolerable PaCO2. To determine whether MBF response to PaCO2 overlaps the same mechanistic path as adenosine, we quantified MBF under hypercapnia and adenosine following caffeine administration. Studies were conducted as described in Yang, H-J et al., J. Nucl. Med. 58: 953-960 (2017), which is hereby incorporated by reference in its entirety. […] FIGS. 16A, 16B, 16E show the mean regional MBF in LAD, left circumflex artery (LCx) and right coronary artery (RCA) supply territories at rest, hypercapnia and adenosine. MBF values were not different at rest among the different supply territories (p>0.4, for all). […] MBF under hypercapnia was not different between the LCx and RCA territories (hypercapnia: p=0.21); the same was true under adenosine (p=0.50). For each myocardial supply territory, MBF under hypercapnia and adenosine were not different (p=1.00, for all). […] MPR under hypercapnia was not different between the LCx and RCA territories (hypercapnia: p=0.59); the same was true under adenosine (p=0.34). For each myocardial supply territory, MPR under hypercapnia and adenosine were not different (p>0.5 for all). […] Perfusion defect volumes and visual scoring under hypercapnia vs. adenosine were determined. TRP obtained under hypercapnia and adenosine were not different: 25±19% (hypercapnia) vs. 27±15% (adenosine); p=0.12. Direct comparison of TRP within the same subjects under hypercapnia and adenosine were highly correlated (R=0.85, p<0.05) and were in good agreement (bias=2%). Similar trends were observed from visual scoring analysis. No difference between the scores from hypercapnia and adenosine was observed from a paired sampled Wilcoxon signed rank test (p=0.26). Visual scores between hypercapnia and adenosine were concordant with most segments falling onto the diagonal of the scoring matrix (FIG. 18).

[6] = test system: myocardial blood flow (MBF); test: 13N-ammonia PET myocardial blood flow following pre-administration of caffeine; assay type: in vivo, canines; conditions: for MBF response relative to rest: following caffeine administration
Description: These studies were conducted by prospectively and independently controlling PaCO2 and combining it with ^13N-ammonia Positron Emission Tomography (PET) measurements, and the extent of effect on MBF due to hypercapnia was compared to adenosine.
The objectives of these studies were twofold: to investigate the effects of PaCO2 on MBF while minimizing contributions from factors that can unintentionally reduce or inaccurately report on sensitivity of PaCO2 on MBF; and to assess whether an independent, precise and rapid establishment of physiologically tolerable level of hypercapnia provides equivalent hyperemia as adenosine, a commonly used pharmacological stimulus for cardiac stress testing with and without pre-administration of caffeine. To address these aims, a clinically relevant animal model was used along with validated strategies for (i) precisely and rapidly establishing desired levels of PaCO2, while holding PaO2 constant; (ii) quantifying MBF in vivo; and (iii) image analysis to derive MBF values across the different coronary supply territories. […] To determine whether MBF response to PaCO2 overlaps the same mechanistic path as adenosine, we quantified MBF under hypercapnia and adenosine following caffeine administration. Studies were conducted as described in Yang, H-J et al., J. Nucl. Med. 58: 953-960 (2017), which is hereby incorporated by reference in its entirety.

LAD coronary arteries = test: Epicardial flow enhancement, Carbogen against clinical dose of adenosine; assay type: in vivo, dogs; conditions: Carbogen with ETCO2 reaching 48-50 mm Hg
Description: as §1
In detail, the color images (lower panel of FIG. 1) are color-coded to the signal intensities of grayscale images (above). The darker colors (blue/black) represent territories of baseline myocardial oxygenation and the brighter regions represent those regions that are hyperemic. […]

SMILES	BOLD signal intensity (myocardium [1]; block increase from 40 mmHg CO2 to 50 mmHg CO2, canines)	BOLD signal intensity (myocardium [1]; hypercarbia (60 mm Hg) vs normocarbia (30 mmHg), canines)	signal intensity, signaling the blood flow, in LAD, RCA and LCX arteries (myocardium [1]; increasing amount of administered CO2)	BOLD signal intensity (myocardium [1]; stepwise CO2 increase (ramp-up), canines)	Doppler flow in LAD artery [2]	hyperemic response (BOLD) (myocardium [3])	mean MBF [4] [mL/min/g]	Global MBF normalized by rate-pressure-product [4]	total reduction in perfusion volume (TRP, % LV) between stress and rest [5] [%]	regional MBF versus rest [5]	MBF increase in the LAD territory [5]	MBF response relative to rest [6]	epicardial flow enhancement response (LAD coronary arteries)	hyperemic BOLD response (myocardium [1]; canines, mean, adenosine stress in three canines)	global MPR ([6]; under caffeine, p<0.05)	resting MBF normalized by rate-pressure-product ([6]; post-administration of caffeine (1.5×10^−5 pre-administration, p=0.03))
O=C=O [CO2, carbon dioxide]	increase in BOLD signal intensity	increase in BOLD signal intensity	increases	increases	increases	approximately 11%	2.1 ± 0.9	1.26×10^−5±0.56×10^−5	25±19	increased	significantly lower than in the LCx and RCA territories	able to induce myocardial hyperemia				
Nc1ncnc2c1ncn2[C@@H]1O[C@H](CO)[C@@H](O)[C@H]1O [adenosine, reference compound]							2.2 ± 1.1	1.16×10^−5±0.80×10^−5	27±15	increased	significantly lower than in the LCx and RCA territories	no change in MBF	about 20%	approximately 12%	lower than under hypercapnia	
Cn1c(=O)c2c(ncn2C)n(C)c1=O [caffeine]																1.0×10^−5
